In brackets after ≈: the same amount, converted by molar mass.
Tests used:
[1] = system: UACC-257; test: Growth inhibition of human UACC257 cells at 10^-5 M incubated for 48 hrs by sulforhodamine B assay; assay type: functional; settings: UACC-257, 48 h, read-out: GI
[2] = system: SN12C; test: Growth inhibition of human SN12C cells at 10^-5 M incubated for 48 hrs by sulforhodamine B assay; assay type: functional; settings: read-out: GI
[3] = system: HCC 2998; test: Growth inhibition of human HCC2998 cells at 10^-5 M incubated for 48 hrs by sulforhodamine B assay; assay type: functional; settings: HCC 2998, 48 h, read-out: GI
[4] = system: SNB-19; test: Growth inhibition of human SNB19 cells at 10^-5 M incubated for 48 hrs by sulforhodamine B assay; assay type: functional; settings: SNB-19, 48 h, read-out: GI
[5] = system: SK-MEL-2; test: Growth inhibition of human SK-MEL-2 cells at 10^-5 M incubated for 48 hrs by sulforhodamine B assay; assay type: functional; settings: SK-MEL-2, 48 h, read-out: GI
[6] = system: RXF 393; test: Growth inhibition of human RXF393 cells at 10^-5 M incubated for 48 hrs by sulforhodamine B assay; assay type: functional; settings: RXF 393, 48 h, read-out: GI
[7] = system: U-251; test: Growth inhibition of human U251 cells at 10^-5 M incubated for 48 hrs by sulforhodamine B assay; assay type: functional; settings: U-251, 48 h, read-out: GI
[8] = system: SK-OV-3; test: Growth inhibition of human SKOV3 cells at 10^-5 M incubated for 48 hrs by sulforhodamine B assay; assay type: functional; settings: SK-OV-3, 48 h, read-out: GI
[9] = system: UO-31; test: Cytotoxicity against human UO31 cells assessed as reduction in cell viability after 24 hrs by MTT assay; assay type: functional, cell-based; settings: UO-31, 24 h
[10] = system: NCI-H460; test: Growth inhibition of human NCI-H460 cells at 10^-5 M incubated for 48 hrs by sulforhodamine B assay; assay type: functional; settings: NCI-H460, 48 h, read-out: GI
[11] = system: HCT-15; test: Growth inhibition of human HCT15 cells at 10^-5 M incubated for 48 hrs by sulforhodamine B assay; assay type: functional; settings: HCT-15, 48 h, read-out: GI
[12] = biological target: T1, NAD-dependent protein deacetylase sirtuin-2 (Homo sapiens, UniProt Q8IXJ6); test: Inhibition of SIRT2 (unknown origin) using fluorogenic substrate assessed as deacetylase activity incubated for 45 mins by fluorescence assay
T1 sequence (Q8IXJ6 whole entry): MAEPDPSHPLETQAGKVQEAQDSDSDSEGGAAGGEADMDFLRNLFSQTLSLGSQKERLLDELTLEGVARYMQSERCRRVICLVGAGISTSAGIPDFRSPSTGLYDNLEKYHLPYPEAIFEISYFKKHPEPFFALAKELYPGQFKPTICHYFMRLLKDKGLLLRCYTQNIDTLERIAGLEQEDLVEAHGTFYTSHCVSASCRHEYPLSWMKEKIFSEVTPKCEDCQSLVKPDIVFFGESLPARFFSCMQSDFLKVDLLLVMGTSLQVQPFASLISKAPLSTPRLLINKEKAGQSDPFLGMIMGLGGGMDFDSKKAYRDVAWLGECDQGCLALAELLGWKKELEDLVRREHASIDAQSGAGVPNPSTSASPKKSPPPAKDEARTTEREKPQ

[13] = system: 786-0; test: Growth inhibition of human 786-0 cells at 10^-5 M incubated for 48 hrs by sulforhodamine B assay; assay type: functional; settings: 786-0, 48 h, read-out: GI
[14] = system: SF-539; test: Growth inhibition of human SF539 cells at 10^-5 M incubated for 48 hrs by sulforhodamine B assay; assay type: functional; settings: SF-539, 48 h, read-out: GI
[15] = system: NCI/ADR-RES; test: Growth inhibition of human NCI/ADR-RES cells at 10^-5 M incubated for 48 hrs by sulforhodamine B assay; assay type: functional; settings: read-out: GI
[16] = system: OVCAR-5; test: Growth inhibition of human OVCAR5 cells at 10^-5 M incubated for 48 hrs by sulforhodamine B assay; assay type: functional; settings: OVCAR-5, 48 h, read-out: GI
[17] = system: SK-MEL-5; test: Growth inhibition of human SK-MEL-5 cells at 10^-5 M incubated for 48 hrs by sulforhodamine B assay; assay type: functional; settings: SK-MEL-5, 48 h, read-out: GI
[18] = system: COLO 205; test: Growth inhibition of human COLO205 cells at 10^-5 M incubated for 48 hrs by sulforhodamine B assay; assay type: functional; settings: COLO 205, 48 h, read-out: GI
[19] = system: PC-3; test: Growth inhibition of human PC3 cells at 10^-5 M incubated for 48 hrs by sulforhodamine B assay; assay type: functional; settings: PC-3, 48 h, read-out: GI
[20] = system: LOX IMVI; test: Growth inhibition of human LOXIMVI cells at 10^-5 M incubated for 48 hrs by sulforhodamine B assay; assay type: functional; settings: read-out: GI
[21] = system: MCF7; test: Cytotoxicity against human MCF7 cells assessed as reduction in cell viability after 24 hrs by MTT assay; assay type: functional, cell-based; settings: MCF7, 24 h
[22] = system: SNB-75; test: Growth inhibition of human SNB75 cells at 10^-5 M incubated for 48 hrs by sulforhodamine B assay; assay type: functional; settings: SNB-75, 48 h, read-out: GI
[23] = system: UACC-62; test: Growth inhibition of human UACC62 cells at 10^-5 M incubated for 48 hrs by sulforhodamine B assay; assay type: functional; settings: UACC-62, 48 h, read-out: GI
[24] = biological target: NAD-dependent protein deacetylase sirtuin-3, mitochondrial (Homo sapiens, UniProt Q9NTG7); test: Inhibition of SIRT3 (unknown origin) using fluorogenic substrate assessed as deacetylase activity incubated for 45 mins by fluorescence assay
[25] = biological target: NAD-dependent protein deacetylase sirtuin-2 (Homo sapiens) (UniProt Q8IXJ6); test: (§1) Inhibition of SIRT2 (unknown origin) assessed as increase in alpha-tubulin acetylation after 2 hrs by alpha-tubulin acetyl-K40 assay
[26] = biological target: T1, NAD-dependent protein deacetylase sirtuin-2; test: as §1
[27] = biological target: NAD-dependent protein deacetylase sirtuin-1 (Homo sapiens, UniProt Q96EB6); test: Inhibition of SIRT1 (unknown origin) using fluorogenic substrate assessed as deacetylase activity incubated for 45 mins by fluorescence assay
Sequence of NAD-dependent protein deacetylase sirtuin-1 (Q96EB6 whole entry): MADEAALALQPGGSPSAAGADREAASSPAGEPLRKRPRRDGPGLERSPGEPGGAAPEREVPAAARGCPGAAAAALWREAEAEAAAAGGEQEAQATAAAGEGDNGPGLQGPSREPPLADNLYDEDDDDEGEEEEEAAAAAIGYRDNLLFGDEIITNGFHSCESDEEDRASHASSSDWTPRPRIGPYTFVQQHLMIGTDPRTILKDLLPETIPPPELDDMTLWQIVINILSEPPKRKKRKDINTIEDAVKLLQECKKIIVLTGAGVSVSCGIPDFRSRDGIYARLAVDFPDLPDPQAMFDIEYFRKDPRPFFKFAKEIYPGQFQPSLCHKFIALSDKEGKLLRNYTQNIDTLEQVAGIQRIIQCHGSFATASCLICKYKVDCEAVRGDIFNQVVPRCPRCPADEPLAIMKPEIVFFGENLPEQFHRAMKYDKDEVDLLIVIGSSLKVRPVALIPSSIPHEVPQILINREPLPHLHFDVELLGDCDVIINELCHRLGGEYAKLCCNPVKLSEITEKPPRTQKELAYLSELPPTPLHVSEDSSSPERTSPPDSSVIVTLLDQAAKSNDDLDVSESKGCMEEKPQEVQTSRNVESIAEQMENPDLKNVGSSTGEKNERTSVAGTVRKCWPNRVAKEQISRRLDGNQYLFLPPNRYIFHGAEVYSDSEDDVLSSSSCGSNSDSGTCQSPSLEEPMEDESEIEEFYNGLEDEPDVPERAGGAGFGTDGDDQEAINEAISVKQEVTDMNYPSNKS

Sequence of NAD-dependent protein deacetylase sirtuin-3, mitochondrial (Q9NTG7 whole entry): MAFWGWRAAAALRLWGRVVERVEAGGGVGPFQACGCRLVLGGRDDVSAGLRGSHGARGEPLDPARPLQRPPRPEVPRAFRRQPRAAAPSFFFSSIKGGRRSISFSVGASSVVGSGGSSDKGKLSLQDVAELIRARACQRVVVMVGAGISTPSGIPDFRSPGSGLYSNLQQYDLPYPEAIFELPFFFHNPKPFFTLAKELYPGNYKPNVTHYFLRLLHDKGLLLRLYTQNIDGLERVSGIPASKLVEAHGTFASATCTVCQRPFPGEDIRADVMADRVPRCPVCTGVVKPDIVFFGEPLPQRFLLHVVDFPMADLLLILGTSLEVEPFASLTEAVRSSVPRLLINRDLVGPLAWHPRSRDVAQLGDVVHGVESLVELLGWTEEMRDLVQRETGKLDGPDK

Structure (SMILES)	inhibition of growth at 10 µM [1] [%]	inhibition of growth at 10 µM [2] [%]	inhibition of growth at 10 µM [3] [%]	inhibition of growth at 10 µM [4] [%]	inhibition of growth at 10 µM [5] [%]	inhibition of growth at 10 µM [6] [%]	inhibition of growth at 10 µM [7] [%]	inhibition of growth at 10 µM [8] [%]	IC50 [9] [µg/mL]	inhibition of growth at 10 µM [10] [%]	inhibition of growth at 10 µM [11] [%]	inhibition of growth at 10 µM [13] [%]	inhibition of growth at 10 µM [14] [%]	inhibition of growth at 10 µM [15] [%]	inhibition of growth at 10 µM [16] [%]	inhibition of growth at 10 µM [17] [%]	inhibition of growth at 10 µM [18] [%]	inhibition of growth at 10 µM [19] [%]	inhibition of growth at 10 µM [20] [%]	IC50 [21] [µg/mL]	other results
NC(=O)CSC1=Nc2c(sc3ccc(Cl)cc23)C(c2cccc([N+](=O)[O-])c2)N1 (stereo not given)	-1.31	1.64	-5.21	-7.64	-13	-12.1	-1.2	4.62	46.8 (≈ 108 µM)	19.3	-3.38	-0.38	0.81	-4.88	-5.8	4.8	-5.21	7.5	3.56	5.06 (≈ 11.7 µM)	IC50 [12]: 17 µM; inhibition of growth at 10 µM [22]: 5.27%; inhibition of growth at 10 µM [23]: 6.2%
O=[N+]([O-])c1cccc(C2c3sc4ccc(Cl)cc4c3N=C3NN=C(c4cccc(F)c4)N32)c1 (stereo not given)	-6.09	3.42	-6.34	-0.64	-11.2	-16.7	-1.33	6.58	10.5 (≈ 21.9 µM)	13.4	0.97	-1.01	4.75	-2.63	-2.63	4.01	-6.34	7.25	0.5	0.23 (≈ 0.481 µM)	IC50 [12]: 8.47 µM; inhibition of growth at 10 µM [22]: 6.3%; inhibition of growth at 10 µM [23]: 4.06%
O=[N+]([O-])c1cccc(C2c3sc4ccc(Cl)cc4c3N=C3NN=CN32)c1 (stereo not given)	-3.45	-37.5	-6.88	1.87	-3.53	1.71	-0.13	-4.54	26.2 (≈ 68.4 µM)	2.77	-1.1	5.64	6.94	6.44	-1.09	5.85	-6.88	-9.08	6.72	9.8 (≈ 25.5 µM)	IC50 [12]: 6.64 µM; inhibition of growth at 10 µM [22]: -4.8%; inhibition of growth at 10 µM [23]: 3.57%
Cc1cc(C)n(C2=Nc3c(sc4ccc(Cl)cc34)C(c3cccc([N+](=O)[O-])c3)N2)n1 (stereo not given)	-4.2	5.84	-5.86	3.18	-5.1	-9.71	-3.95	11.4	9.62 (≈ 22 µM)	7.9	-0.63	-6.44	-0.76	-2.52	-4.21	4.68	-5.86	18.6	0.51	1.67 (≈ 3.81 µM)	IC50 [12]: 19.3 µM; inhibition of growth at 10 µM [22]: 7.66%; inhibition of growth at 10 µM [23]: 9.64%
S=C1Nc2c(sc3ccc(Cl)cc23)C(c2ccc3ccccc3c2)N1 (stereo not given)	1.95	9.45	-16.7	7.85	9.98	-0.71	7.46	12.2	7.91 (≈ 20.8 µM)	6.2	2.67	4.93	3.23	4.45	5.36	5.24	0.1	14.5	7.47	19.6 (≈ 51.6 µM)	inhibition of growth at 10 µM [22]: 26%; inhibition of growth at 10 µM [23]: 13.9%
N#Cc1cnn(C2=Nc3c(sc4ccc(Cl)cc34)C(c3cccc([N+](=O)[O-])c3)N2)c1N (stereo not given)	-3.69	-7.06	-3.42	-2.52	-5.14	4.09	-11.2	5.04	32.5 (≈ 72.2 µM)	-1.07	-4.58	1	2.87	5.59	4.37	4.88	-3.42	11	12.5	11.9 (≈ 26.5 µM)	inhibition of growth at 10 µM [22]: 11.5%; inhibition of growth at 10 µM [23]: 7.54%
O=C1CSC2=Nc3c(sc4ccc(Cl)cc34)C(c3ccc4ccccc4c3)N12 (stereo not given)	1.52	9.96	-30.1	-1.93	-6.76	-5.09	-7.94	10.3	12.4 (≈ 29.5 µM)	-1.49	1.72	2.84	-2.59	-1.46	1.49	2.92	-3.73	7.88	9.15	2.34 (≈ 5.56 µM)	IC50 [24]: 48.7 µM; IC50 [12]: 4.99 µM; inhibition [25]: Dose-dependent effect; IC50 [26]: 76.1 µM; IC50 [27]: 4.3 µM; inhibition of growth at 10 µM [22]: 16.8%; inhibition of growth at 10 µM [23]: 15.7%
O=[N+]([O-])c1cccc(C2NC(N3CCOCC3)=Nc3c2sc2ccc(Cl)cc32)c1 (stereo not given)	-6.32	3.85	-6.02	2.54	-1.1	-8.09	1.11	-6.18	3.11 (≈ 7.25 µM)	4.82	-7.82	-5.37	6.94	-3.21	-1.26	4.38	-6.02	23	3.74	10.4 (≈ 24.3 µM)	inhibition of growth at 10 µM [22]: 10.7%; inhibition of growth at 10 µM [23]: 8.77%

Reference: ChEMBL document CHEMBL4414672, “Synthesis of certain benzothieno[3,2-d]pyrimidine derivatives as a selective SIRT2 inhibitors” (Eur J Med Chem, 2020)
